Experiment in all cases: 3' UTR reporter interaction score (median-centred robust z-score of log2 firefly/Renilla activity); higher = less repression of the 3' UTR reporter
Holding throughout (conditions): HEK293T; 48 h

Series [1] concerns MYCN. The essentials:
(§1)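 In at least two independent screens, HEK293T cells in 96-well plates (10,000/well) were co-transfected with DharmaFECT Duo using 100 ng firefly luc2P reporter with the gene's 3' UTR, 20 ng Renilla pRL-TK control and 2.5 pmol miRNA mimic, and dual-luciferase activities were read at 48 h. The interaction score, averaged across screens, is the per-plate robust z-score (median, median absolute deviation) of the log firefly/Renilla ratio, median-centred per miRNA, with more negative indicating interaction.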

The subject of series [2] is PHOX2B. The procedure, abridged:
as §1

Series [3] has as its system NOTCH1. The procedure, abridged:
as §1

The subject of series [4] is RB1. The procedure, abridged:
as §1

Series [5] relates to HRAS. The procedure, abridged:
as §1

For series [6], the system named is MYC. The procedure, abridged: as §1
The subject of series [7] is TP53. The procedure, abridged:
as §1

Series [8] relates to FBXW7. The procedure, abridged: as §1
Series [9] has as its system MYB. The procedure, abridged:
as §1

In series [10] the test system is BRCA2. The essentials: as §1
The test system of series [11] is MYT1L. The essentials:
as §1

Series [12] relates to ZEB2. The essentials:
as §1

Series [13] has as its system EZH2. The procedure, abridged: as §1
The test system of series [14] is PHF6. The essentials:
as §1

The text below walks through data of the supplement of paper PMC5844555.

Take AACAUUCAACGCUGUCGGUGAGU: the “3' UTR reporter interaction score” value in series [1] is -0.12; in series [2] it was -0.00434; in [3] it was 0.193; in series [4], 0.404; in [5], -0.301; in [6], 0.478. Further, the “3' UTR reporter interaction score” value in series [7] is 0.784; in [8], -0.842; in series [9] it was 0.057; in series [10], 0.243; in [11] it was -0.0848; in series [12], -0.18. The entries for the “3' UTR reporter interaction score” value in [13] and in series [14] were -0.146 and -0.891, respectively.
Take AACAUUCAUUGUUGUCGGUGGGUU: the “3' UTR reporter interaction score” value in series [1] was -0.95; in series [2], 0.761; in series [3], 0.549; in [4], 0.277; in [5], -0.818; in series [6] it was -0.122. Also, the “3' UTR reporter interaction score” value in series [7] was -1.07; in series [8], 0.226; in [9] it was 0.819; in series [10], -0.763; in [11], 1.2; in series [12], 1.49. Also, the figures for the “3' UTR reporter interaction score” value in series [13] and in series [14] were -0.453 and 0.446, respectively.
As to AACCAGCACCCCAACUUUGGAC, the “3' UTR reporter interaction score” value is 0.781 in series [1]; -0.923 in series [2]; -0.388 in [3]; -1.29 in series [4]; 0.0381 in series [5]; 0.864 in series [6]. Besides, the “3' UTR reporter interaction score” value in series [7] was 0.244; in series [8], -7.19; in series [9], -1.09; in series [10], -0.175; in series [11] it was 0.0434; in series [12], 1.09. For the same sequence, the entries for the “3' UTR reporter interaction score” value in [13] and in [14] were 1.33 and -2.04, respectively.
Consider AACCCGUAGAUCCGAACUUGUG, for which the “3' UTR reporter interaction score” value in series [1] is -0.886; in series [2], -4.05; in series [3] it was -0.555; in [4] it was 0.915; in series [5], 0.79; in series [6] it was 0.114. Further, the “3' UTR reporter interaction score” value in [7] was 1.86; in series [8] it was -0.349; in [9], 0.491; in [10] it was 0.951; in [11], -0.266; in [12], -1.13. The “3' UTR reporter interaction score” value is 0.142 in series [13] and -0.96 in series [14].
Consider AACCCGUAGAUCCGAUCUUGUG, for which the “3' UTR reporter interaction score” value in series [1] was 0.392; in series [2], -3.27; in [3], 0.552; in series [4], -0.24; in series [5], 0.465; in series [6], 1.06. The “3' UTR reporter interaction score” value was -0.247 in series [7]; -0.496 in series [8]; 1.14 in series [9]; 0.969 in series [10]; -0.114 in [11]; -0.0662 in series [12]. Also, the “3' UTR reporter interaction score” value was -0.241 in series [13] and -0.973 in series [14].
Regarding AACGCACUUCCCUUUAGAGUGU, the “3' UTR reporter interaction score” value in series [1] is 0.243; in series [2], -0.209; in series [3] it was 0.0977; in [4] it was 1.02; in series [5], -0.716; in series [6] it was -2.85. Besides, the “3' UTR reporter interaction score” value in [7] is -0.139; in series [8], 0.611; in [9] it was -0.0921; in series [10], 0.843; in series [11], 1.01; in [12], 0.153. Besides, the “3' UTR reporter interaction score” value in series [13] is 0.293; in series [14], -1.36.
On to AACGCGCUUCCCUAUAGAGGG, for which the “3' UTR reporter interaction score” value was -1.41 in series [1]; -0.021 in [2]; 0.382 in series [3]; 0.667 in [4]; -1.1 in series [5]; -0.143 in series [6]. Moreover, the “3' UTR reporter interaction score” value in series [7] is 1.12; in series [8] it was 0.0883; in series [9], -0.83; in [10] it was 0.644; in series [11], -0.267; in [12], -0.982. Also, the “3' UTR reporter interaction score” value in series [13] was 1.38; in series [14], 0.0798.
As for AAGCAGCUGCCUCUGAGGC, the “3' UTR reporter interaction score” value was 0.924 in series [1]; 0.758 in series [2]; -0.304 in [3]; 0.293 in series [4]; -0.819 in [5]; 1.09 in series [6]. Moreover, the “3' UTR reporter interaction score” value is 0.187 in series [7]; -2.92 in [8]; -1.27 in [9]; -0.823 in series [10]; -4.53 in series [11]; 1.09 in [12]. For the same sequence, the “3' UTR reporter interaction score” value in series [13] was -1.03; in [14], 0.632.
AAGCCUGCCCGGCUCCUCGGG: the “3' UTR reporter interaction score” value was -0.588 in [1]; 0.478 in [2]; -0.439 in [3]; -0.201 in series [4]; 0.291 in series [5]; 0.642 in [6]. For the same sequence, the “3' UTR reporter interaction score” value in series [7] is -1.82; in [8], 0.255; in series [9], 0.0778; in series [10], 0.422; in series [11], -0.815; in series [12] it was 1.11. Moreover, the “3' UTR reporter interaction score” value was -0.223 in series [13] and -0.0107 in series [14].
